Assay results taken from patent US7314858B2, “Retrocyclins: antiviral and antimicrobial peptides” (priority 2001, dated 2008).
Several values for one entry are separate records, joined by “and”; a condition that tells them apart may be missing. Equal entries are not always repeated. Entries after “also recorded” stand apart in the source; their conditions may differ. Where a SMILES comes first, the peptide text is derived from it. Bridges are numbered along the chain shown (N, C = ends). [ ]: non-standard residue; d: D form.

These compounds were tested on HIV-1 strain JR-CSF (assay: HIV-1 JR-CSF infection of CD4+ PBMC, p24 antigen ELISA). Settings: JR-CSF (R5), peptide 10-20 μg/ml.
Type: cell-based
Method: FIG. 5A-C. Anti-HIV-1 activity of retrocyclin. Two strains of HIV-1 and two types of human target cells were used. The IIIB strain is T-cell tropic (X4) and utilizes the CXCR4 co-receptor for entry; the JR-CSF strain is M-tropic (R5) and uses CCR5 for entry. PBMC signifies CD4^+-selected peripheral blood mononuclear cells. […] (A) Two concentrations of retrocyclin (2 μg/ml, 20 μg/ml), 20 μg/ml of the Rhesus circular defensin “RTD-1”, and 20 μg/ml of a horseshoe crab-derived peptide “T140”, reported to only prevent X4 infections, were tested in antiviral assays of against strain IIIB in H9 cells (n=2-6 per peptide; error bars indicate SEM). (B) To confirm our results with primary human cells, similar assays were performed utilizing IIIB virus and CD4^+ PBMC or (C) JR-CSF virus and CD4^+ PBMC. Peptides were not cytotoxic at indicated concentrations, measured by trypan blue exclusion. Average of duplicate experiments are reported for studies with PBMCs. Assay sensitivity=10 pg/ml.
(§1) Either HIV-1-permissive H9 cells were used as targets, or primary CD4^+ lymphocytes from HIV-1-seronegative donors generated from freshly purified peripheral blood mononuclear cells (PBMC) stimulated with a CD3-CD8 bispecific monoclonal antibody. After approximately 7 days, when 98% of these cells co-expressed CD3 and CD4, they were infected with HIV-1 with or without retrocyclin or other test peptide. These cells were maintained in RPMI containing 10% FCS supplemented with 2 mM glutamine, 100 U of penicillin/ml, 10 μg of streptomycin/ml, and 50 U of interleukin 2/ml (R10-50 media).
The p24 assay results shown in FIG. 9 are on a logarithmic scale. A horizontal reference line that passes through 100 on the ordinate scale corresponds to […] of p24 antigen. Results from 3 experiments (each performed with PBMC from a different donor) are shown.

Question: With “I2Y-Retrocyclin (cyclo(GYCRCICGRGICRCICGR); disulfide (positions not given here); ring closure inferred; not fully specified (bridges)) [RC-104, cyclic …]” as the compound, how does the “inhibition of HIV-1 replication (p24)” value read?
Answer: Its value is “considerable ability to protect cells; also recorded: substantial activity”.

Question: With R9Y-Retrocyclin [RC-107] as the compound, how does the “inhibition of HIV-1 replication (p24)” value read?
Answer: The value was “lack of efficacy”.

These compounds were tested on human red blood cells (assay: Hemagglutination of washed red blood cells in PBS). Settings: not given.
Method: Hemagglutination was tested by adding the stated concentration of peptide to a well comprising red blood cells (shown in FIG. 22). When the RBC are agglutinated, they clump together and settle rapidly and form a diffuse circle covering much of the bottom of the well. In the absence of agglutination, they settle more slowly and form a compact red button in the center of the well.
Sequences of retrocyclin-related peptides that were synthesized and either tested for activity against HIV-1 (see FIGS. 21A and 21B) and/or for their ability to cause human red blood cells to hemagglutinate or both. NT signifies not tested. Linear sequences appear in the table, but all peptides were cyclic and contained three intramolecular disulfide bonds. Hemagglutination of washed human red blood cells was tested in PBS, at peptide concentrations of 50, 25, 12.5 6.25 and 3.12 μg/ml. The lowest concentrations that caused hemagglutination are shown. Peptide concentrations were determined by amino acid analysis or by AUC (area under the curve) RP-HPLC analysis with reference to amino-acid analyzed standards.

Question: Which “Hemagglutination seen at a concentration of (lowest concentration that caused hemagglutination)” value (from here on “Hemagglutination seen at a concentration”) does the source give for “R→K Retrocyclin-1 (cyclo(GICKCICGKGICKCICGR); disulfide (positions not given here); ring closure inferred; not fully specified (bridges)) [RC119]” here?
Answer: The value was 50 µg/mL.

Same assay, conditions: washed human red blood cells in PBS

Question: For CC[C@H](C)[C@@H]1NC(=O)CNC(=O)[C@H](CCCNC(=N)N)NC(=O)CNC(=O)[C@@H]2CSSC[C@H](NC1=O)C(=O)N[C@@H](CCCNC(=N)N)C(=O)N[C@H]1CSSC[C@H](NC(=O)[C@H](CCCNC(=N)N)NC(=O)[C@@H]3CSSC[C@H](NC(=O)[C@H]([C@@H](C)CC)NC1=O)C(=O)NCC(=O)N[C@@H](CCCCN)C(=O)N[C@@H](CCCNC(=N)N)C(=O)N[C@@H]([C@@H](C)CC)C(=O)N3)C(=O)N[C@@H]([C@@H](C)CC)C(=O)N2 [RC123A, Retrocyclin 2A] (cyclo(CGKRICRCICGRGICRCI); disulfide 1-6, 8-17, 10-15), which “Hemagglutination seen at a concentration” value is on record?
Answer: Its value is 50 µg/mL.

Question: What about the “hemagglutination compared with retrocyclin” value of the same compound?
Answer: The value was “less hemagglutination than retrocyclin-1 or retrocyclin-2”.

Question: Which “Hemagglutination seen at a concentration” value does the source give for CC[C@H](C)[C@@H]1NC(=O)CNC(=O)[C@H](CCCNC(=N)N)NC(=O)CNC(=O)[C@@H]2CSSC[C@H](NC1=O)C(=O)N[C@@H](CCCNC(=N)N)C(=O)N[C@H]1CSSC[C@H](NC(=O)[C@H](CCCNC(=N)N)NC(=O)[C@@H]3CSSC[C@H](NC(=O)[C@H]([C@@H](C)CC)NC1=O)C(=O)NCC(=O)N[C@@H](CCCCN)C(=O)N[C@@H](CCCCN)C(=O)N[C@@H]([C@@H](C)CC)C(=O)N3)C(=O)N[C@@H]([C@@H](C)CC)C(=O)N2 [RC123B, Retrocyclin 2B] (cyclo(CGKKICRCICGRGICRCI); disulfide 1-6, 8-17, 10-15) here?
Answer: The value was 6.25 µg/mL.

Question: For CC[C@H](C)[C@@H]1NC(=O)CNC(=O)[C@H](CCCNC(=N)N)NC(=O)CNC(=O)[C@@H]2CSSC[C@H](NC1=O)C(=O)N[C@@H](CCCNC(=N)N)C(=O)N[C@H]1CSSC[C@H](NC(=O)[C@H](CCCNC(=N)N)NC(=O)[C@@H]3CSSC[C@H](NC(=O)[C@H]([C@@H](C)CC)NC1=O)C(=O)NCC(=O)N[C@@H](CCCNC(=N)N)C(=O)N[C@@H](CCCCN)C(=O)N[C@@H]([C@@H](C)CC)C(=O)N3)C(=O)N[C@@H]([C@@H](C)CC)C(=O)N2 [RC123C, Retrocyclin 2C] (cyclo(CGRGICRCICGRKICRCI); disulfide 1-6, 8-17, 10-15), which “Hemagglutination seen at a concentration” value is on record?
Answer: The value was 50 µg/mL.

Question: And the “hemagglutination compared with retrocyclin” value?
Answer: Its value is “less hemagglutination than retrocyclin-1 or retrocyclin-2”.

Question: Which “Hemagglutination seen at a concentration” value does the source give for CC[C@H](C)[C@@H]1NC(=O)CNC(=O)[C@H](CCCNC(=N)N)NC(=O)CNC(=O)[C@@H]2CSSC[C@H](NC1=O)C(=O)N[C@@H](CCCNC(=N)N)C(=O)N[C@H]1CSSC[C@H](NC(=O)[C@H](CCCCN)NC(=O)[C@@H]3CSSC[C@H](NC(=O)[C@H]([C@@H](C)CC)NC1=O)C(=O)NCC(=O)N[C@@H](CCCNC(=N)N)C(=O)N[C@@H](CCCNC(=N)N)C(=O)N[C@@H]([C@@H](C)CC)C(=O)N3)C(=O)N[C@@H]([C@@H](C)CC)C(=O)N2 [RC123D, Retrocyclin 2D] (cyclo(CGRGICRCICGRRICKCI); disulfide 1-6, 8-17, 10-15) here?
Answer: The value was 50 µg/mL.

Question: CC[C@H](C)[C@@H]1NC(=O)CNC(=O)[C@H](CCCNC(=N)N)NC(=O)CNC(=O)[C@@H]2CSSC[C@H](NC1=O)C(=O)N[C@@H](CCCCN)C(=O)N[C@H]1CSSC[C@H](NC(=O)[C@H](CCCNC(=N)N)NC(=O)[C@@H]3CSSC[C@H](NC(=O)[C@H]([C@@H](C)CC)NC1=O)C(=O)NCC(=O)N[C@@H](CCCNC(=N)N)C(=O)N[C@@H](CCCNC(=N)N)C(=O)N[C@@H]([C@@H](C)CC)C(=O)N3)C(=O)N[C@@H]([C@@H](C)CC)C(=O)N2 [RC123E, Retrocyclin 2E] (cyclo(CGRGICKCICGRRICRCI); disulfide 1-6, 8-17, 10-15) was tested. Which “Hemagglutination seen at a concentration” value did it give?
Answer: The value was 25 µg/mL.

Question: How did the “Hemagglutination seen at a concentration” value turn out when CC[C@@H](C)[C@H]1NC(=O)CNC(=O)[C@@H](CCCNC(=N)N)NC(=O)CNC(=O)[C@H]2CSSC[C@@H](NC1=O)C(=O)N[C@H](CCCNC(=N)N)C(=O)N[C@@H]1CSSC[C@@H](NC(=O)[C@@H](CCCNC(=N)N)NC(=O)[C@H]3CSSC[C@@H](NC(=O)[C@@H]([C@H](C)CC)NC1=O)C(=O)NCC(=O)N[C@H](CCCNC(=N)N)C(=O)NCC(=O)N[C@H]([C@H](C)CC)C(=O)N3)C(=O)N[C@H]([C@H](C)CC)C(=O)N2 [RC-112, enantio-retrocyclin] (cyclo(G[dI][dC][dR][dC][dI][dC]G[dR]G[dI][dC][dR][dC][dI][dC]G[dR]); disulfide 3-16, 5-14, 7-12) was run?
Answer: The value was 50 µg/mL.

Question: And the “hemagglutination compared with retrocyclin” value?
Answer: The value was “less hemagglutination than retrocyclin-1 or retrocyclin-2”.

Question: Which results are given for CC[C@@H](C)[C@H]1NC(=O)CNC(=O)[C@@H](CCCCN)NC(=O)CNC(=O)[C@H]2CSSC[C@@H](NC1=O)C(=O)N[C@H](CCCNC(=N)N)C(=O)N[C@@H]1CSSC[C@@H](NC(=O)[C@@H](CCCNC(=N)N)NC(=O)[C@H]3CSSC[C@@H](NC(=O)[C@@H]([C@H](C)CC)NC1=O)C(=O)NCC(=O)N[C@H](CCCNC(=N)N)C(=O)NCC(=O)N[C@H]([C@H](C)CC)C(=O)N3)C(=O)N[C@H]([C@H](C)CC)C(=O)N2 [RC-113, enantio-RC-101]?
Answer: Hemagglutination seen at a concentration of (lowest concentration that caused hemagglutination): 50 µg/mL; hemagglutination compared with retrocyclin: less hemagglutination than retrocyclin-1 or retrocyclin-2

Question: Which “Hemagglutination seen at a concentration” value does the source give for CC[C@H](C)[C@@H]1NC(=O)CNC(=O)[C@H](CCCCN)NC(=O)CNC(=O)[C@@H]2CSSC[C@H](NC1=O)C(=O)N[C@@H](CCCNC(=N)N)C(=O)N[C@H]1CSSC[C@H](NC(=O)[C@H](CCCNC(=N)N)NC(=O)[C@@H]3CSSC[C@H](NC(=O)[C@H](Cc4ccc(O)cc4)NC1=O)C(=O)NCC(=O)N[C@@H](CCCNC(=N)N)C(=O)NCC(=O)N[C@@H]([C@@H](C)CC)C(=O)N3)C(=O)N[C@@H]([C@@H](C)CC)C(=O)N2 [RC-114, RC-101/103 hybrid] (cyclo(CGKGICRCYCGRGICRCI); disulfide 1-6, 8-17, 10-15) here?
Answer: The value was 200 µg/mL and > 150 µg/mL.

Question: What about the “hemagglutination compared with retrocyclin” value of the same compound?
Answer: Its value is “much less hemagglutination than retrocyclin”.

What follows are compounds tested on HIV-1 strain IIIB (assay: HIV-1 IIIB infection of CD4+ PBMC, p24 antigen ELISA). Settings: CD4+ PBMC, IIIB (X4), peptide 10-20 μg/ml.
Type: cell-based
Method: FIG. 5A-C. Anti-HIV-1 activity of retrocyclin. Two strains of HIV-1 and two types of human target cells were used. The IIIB strain is T-cell tropic (X4) and utilizes the CXCR4 co-receptor for entry; the JR-CSF strain is M-tropic (R5) and uses CCR5 for entry. PBMC signifies CD4^+-selected peripheral blood mononuclear cells. […] (A) Two concentrations of retrocyclin (2 μg/ml, 20 μg/ml), 20 μg/ml of the Rhesus circular defensin “RTD-1”, and 20 μg/ml of a horseshoe crab-derived peptide “T140”, reported to only prevent X4 infections, were tested in antiviral assays of against strain IIIB in H9 cells (n=2-6 per peptide; error bars indicate SEM). (B) To confirm our results with primary human cells, similar assays were performed utilizing IIIB virus and CD4^+ PBMC or (C) JR-CSF virus and CD4^+ PBMC. […] Average of duplicate experiments are reported for studies with PBMCs. Assay sensitivity=10 pg/ml.
as §1, with “After approximately 7 days, when 98% of these cells co-expressed CD3 and CD4, they were infected with HIV-1 with or without retrocyclin or other test peptide.” left out
Examining the effect of adding retrocyclin at various times pre- and post-HIV-1 infection. […] Primary CD4^+ PBMC were incubated with HIV-IIIB (FIG. 6) or HIV-JR-CSF for 3 hours in the presence or absence of 20 μg/ml retrocyclin. The cells were subsequently washed in media, and incubated an additional 9 days. Retrocyclin (20 μg/ml) was added back to some of the cultures at time points specified in FIG. 6 and infection was monitored by p24 ELISA as previously described. […]

Question: “I2Y-Retrocyclin (cyclo(GYCRCICGRGICRCICGR); disulfide (positions not given here); ring closure inferred; not fully specified (bridges)) [RC-104, cyclic …]” was tested. Which “inhibition of HIV-1 replication (p24)” value did it give?
Answer: The value was “relatively ineffective”.

Question: How did the “inhibition of HIV-1 replication (p24)” value turn out when “I11Y-Retrocyclin (cyclo(GICRCICGRGYCRCICGR); disulfide (positions not given here); ring closure inferred; not fully specified (bridges)) [RC-105]” was run?
Answer: Its value is “either inactive or only modestly active”.

Question: Which “inhibition of HIV-1 replication (p24)” value does the source give for R9Y-Retrocyclin [RC-107] here?
Answer: Its value is “lack of efficacy”.
